Reference: PubChem BioAssay AID248 (DTP/NCI, 2004)
Where “and” joins values, the source holds several entries; their conditions need not be identical. Equal values may be shown once. Toxic doses and inconclusive results are not listed. No stated cut-off is given here; in the data, active means T/C of 150% or more; inactive means T/C below 125%.

Tested on: L1210 leukemia ip in BDF1 mice, survival T/C
Experiment: NCI In Vivo Anticancer Drug Screen. Data for tumor model L1210 Leukemia (intraperitoneal) in B6D2F1 (BDF1) mice
Conditions: endpoint: mean survival time, higher = longer survival
Summary of the method: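 Survival endpoint. Drug-treated group vs vehicle group, expressed as T divided by C. Tumor passaged by transplantation.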

[1] = dose: 100.0 mg/kg/injection, schedule: Q01DX001 (ip), vehicle: carboxymethylcellulose (CMC)
[2] = dose: 100.0 mg/kg/injection, schedule: Q04DX002 (ip), vehicle: Klucel (hydroxypropylcellulose) (HPC)
[3] = dose: 200.0 mg/kg/injection, schedule: Q01DX001 (ip), vehicle: carboxymethylcellulose (CMC)
[4] = dose: 200.0 mg/kg/injection, schedule: Q04DX002 (ip), vehicle: Klucel (hydroxypropylcellulose) (HPC)
[5] = dose: 400.0 mg/kg/injection, schedule: Q01DX001 (ip), vehicle: carboxymethylcellulose (CMC)
[6] = dose: 400.0 mg/kg/injection, schedule: Q04DX002 (ip), vehicle: Klucel (hydroxypropylcellulose) (HPC)
[7] = dose: 100.0 mg/kg/injection, schedule: Q01DX009 (ip), vehicle: saline with Tween-80
[8] = dose: 100.0 mg/kg/injection, schedule: Q04DX003 (ip), vehicle: saline with Tween-80
[9] = dose: 200.0 mg/kg/injection, schedule: Q04DX003 (ip), vehicle: saline with Tween-80
[10] = dose: 400.0 mg/kg/injection, schedule: Q04DX002 (ip), vehicle: saline with Tween-80
[11] = dose: 400.0 mg/kg/injection, schedule: Q04DX003 (ip), vehicle: saline with Tween-80
[12] = dose: 50.0 mg/kg/injection, schedule: Q01DX009 (ip), vehicle: saline with Tween-80
[13] = dose: 100.0 mg/kg/injection, schedule: Q01DX001 (ip), vehicle: other
[14] = dose: 200.0 mg/kg/injection, schedule: Q01DX001 (ip), vehicle: other
[15] = dose: 400.0 mg/kg/injection, schedule: Q01DX001 (ip), vehicle: other
[16] = dose: 100.0 mg/kg/injection, schedule: Q04DX003 (ip), vehicle: Klucel (hydroxypropylcellulose) (HPC)
[17] = dose: 200.0 mg/kg/injection, schedule: Q04DX003 (ip), vehicle: Klucel (hydroxypropylcellulose) (HPC)

Measured: T/C

O=C1CCC(=O)C2CC=CCC12 (centres undefined)
inactive: dose: 100.0 mg/kg/injection, schedule: Q## X003 (ip), vehicle: saline 101 % of control | dose: 200.0 mg/kg/injection, schedule: Q## X003 (ip), vehicle: saline 108 % of control | dose: 400.0 mg/kg/injection, schedule: Q## X003 (ip), vehicle: saline 98 % of control

CC(C)c1nc(CO)c(CO)n1Cc1ccccc1
inactive: [1] 106 % of control | dose: 100.0 mg/kg/injection, schedule: Q01DX009 (ip), vehicle: carboxymethylcellulose (CMC) 93 % of control and 109 % of control | [2] 112 % of control | dose: 100.0 mg/kg/injection, schedule: Q04DX002 (ip), vehicle: carboxymethylcellulose (CMC) 93 % of control and 111 % of control | [3] 108 % of control | dose: 200.0 mg/kg/injection, schedule: Q01DX009 (ip), vehicle: carboxymethylcellulose (CMC) 106 % of control and 91 % of control | [4] 102 % of control | dose: 200.0 mg/kg/injection, schedule: Q04DX002 (ip), vehicle: carboxymethylcellulose (CMC) 105 % of control and 88 % of control | [5] 108 % of control | dose: 400.0 mg/kg/injection, schedule: Q01DX009 (ip), vehicle: carboxymethylcellulose (CMC) 106 % of control and 91 % of control | [6] 102 % of control | dose: 400.0 mg/kg/injection, schedule: Q04DX002 (ip), vehicle: carboxymethylcellulose (CMC) 97 % of control and 90 % of control

CCOC(=O)c1ccc(NC(=O)N2CCCCC2C)cc1 (centres undefined)
inactive: dose: 100.0 mg/kg/injection, schedule: Q01DX001 (ip), vehicle: saline with Tween-80 93 % of control | [7] 104 % of control | dose: 100.0 mg/kg/injection, schedule: Q04DX002 (ip), vehicle: saline with Tween-80 97 % of control and 99 % of control | [8] 88 % of control | dose: 200.0 mg/kg/injection, schedule: Q01DX001 (ip), vehicle: saline with Tween-80 89 % of control | dose: 200.0 mg/kg/injection, schedule: Q01DX009 (ip), vehicle: saline with Tween-80 104 % of control | dose: 200.0 mg/kg/injection, schedule: Q04DX002 (ip), vehicle: saline with Tween-80 92 % of control and 100 % of control | [9] 96 % of control | dose: 400.0 mg/kg/injection, schedule: Q01DX001 (ip), vehicle: saline with Tween-80 91 % of control | dose: 400.0 mg/kg/injection, schedule: Q01DX009 (ip), vehicle: saline with Tween-80 97 % of control | [10] 94 % of control and 99 % of control | [11] 96 % of control

O=C(COc1ccccc1)Nc1ccc(Br)cc1
inactive: [2] 103 % of control | [4] 103 % of control | [6] 95 % of control

Clc1ccc(N/N=C(\Oc2ccccc2)c2ccccc2)cc1
inactive: [8] 104 % of control | [11] 98 % of control

FC(F)(F)c1ccc(C=C2c3ccccc3-c3ccccc32)cc1
inactive: dose: 12.5 mg/kg/injection, schedule: Q04DX002 (ip), vehicle: Klucel (hydroxypropylcellulose) (HPC) 92 % of control | dose: 25.0 mg/kg/injection, schedule: Q04DX002 (ip), vehicle: Klucel (hydroxypropylcellulose) (HPC) 92 % of control | dose: 50.0 mg/kg/injection, schedule: Q04DX002 (ip), vehicle: Klucel (hydroxypropylcellulose) (HPC) 92 % of control

O=C1CC(c2ccccc2)NN1c1ccccc1 (centres undefined)
inactive: [12] 95 % of control and 97 % of control | [7] 100 % of control and 103 % of control | dose: 100.0 mg/kg/injection, schedule: Q04DX002 (ip), vehicle: alcohol 102 % of control | dose: 200.0 mg/kg/injection, schedule: Q04DX002 (ip), vehicle: alcohol 104 % of control | dose: 400.0 mg/kg/injection, schedule: Q04DX002 (ip), vehicle: alcohol 94 % of control

C=CCC1(O)C(c2ccccc2)=C(c2ccccc2)C(c2ccccc2)=C1c1ccccc1
inactive: dose: 50.0 mg/kg/injection, schedule: Q01DX001 (ip), vehicle: other 98 % of control | [13] 96 % of control | [14] 98 % of control | [15] 98 % of control

CC(C(=O)c1ccccc1)C(N[N+](C)(C)C)c1ccccc1 (centres undefined)
inactive: dose: 6.25 mg/kg/injection, schedule: Q04DX003 (ip), vehicle: saline 91 % of control | dose: 12.5 mg/kg/injection, schedule: Q04DX003 (ip), vehicle: saline 97 % of control | dose: 25.0 mg/kg/injection, schedule: Q04DX003 (ip), vehicle: saline 97 % of control

CC/[N+]([O-])=C/c1ncc([N+](=O)[O-])n1C
inactive: dose: 100.0 mg/kg/injection, schedule: Q04DX002 (ip), vehicle: saline 114 % of control | dose: 200.0 mg/kg/injection, schedule: Q04DX002 (ip), vehicle: saline 118 % of control | dose: 400.0 mg/kg/injection, schedule: Q04DX002 (ip), vehicle: saline 114 % of control

C=CC1(C)CCC2C(=CCC3C(C)(C(=O)O)CCCC23C)C1 (centres undefined) (tested in a mixture with another compound)
inactive: [1] 104 % of control | [3] 95 % of control | [5] 95 % of control

Cc1nc2ccccc2cc1C#N
inactive: [1] 118 % of control | [3] 118 % of control | [5] 108 % of control

Cc1cc2c(cc1O)C(C)(C)CCC2(C)C
inactive: [8] 92 % of control | [9] 100 % of control | [11] 97 % of control

C[Si](C)(C)Cc1cccc(F)c1
inactive: dose: 25.6 mg/kg/injection, schedule: Q04DX002 (ip), vehicle: saline with Tween-80 93 % of control | dose: 64.0 mg/kg/injection, schedule: Q04DX002 (ip), vehicle: saline with Tween-80 90 % of control | dose: 160.0 mg/kg/injection, schedule: Q04DX002 (ip), vehicle: saline with Tween-80 87 % of control | [10] 97 % of control

O=C(O)CCSC(c1ccccc1)(c1ccccc1)c1ccccc1
inactive: dose: 25.0 mg/kg/injection, schedule: Q01DX009 (ip), vehicle: saline 102 % of control | dose: 50.0 mg/kg/injection, schedule: Q01DX009 (ip), vehicle: saline 103 % of control | dose: 100.0 mg/kg/injection, schedule: Q01DX009 (ip), vehicle: saline 96 % of control | dose: 200.0 mg/kg/injection, schedule: Q01DX009 (ip), vehicle: saline 100 % of control | dose: 300.0 mg/kg/injection, schedule: Q01DX009 (ip), vehicle: saline 96 % of control | dose: 400.0 mg/kg/injection, schedule: Q01DX009 (ip), vehicle: saline 96 % of control

Cc1c2c([nH]c(=O)c1C)C=CC(Br)C2Br (centres undefined)
inactive: [13] 93 % of control | [14] 101 % of control | [15] 98 % of control

Nc1ccc(N=Nc2ccc(S(=O)(=O)Nc3nccs3)cc2)c(N)n1
inactive: dose: 100.0 mg/kg/injection, schedule: Q01DX001 (ip), vehicle: saline 102 % of control | dose: 200.0 mg/kg/injection, schedule: Q01DX001 (ip), vehicle: saline 96 % of control | dose: 400.0 mg/kg/injection, schedule: Q01DX001 (ip), vehicle: saline 88 % of control

O=C(COc1ccc(F)cc1Cl)OCCOCCO
inactive: [2] 106 % of control | [4] 95 % of control | [6] 106 % of control

C=C1CC2(OC1=O)C(=O)N(C)c1ccccc12 (centres undefined)
inactive: dose: 25.0 mg/kg/injection, schedule: Q04DX002 (ip), vehicle: gum acacia 101 % of control | dose: 50.0 mg/kg/injection, schedule: Q04DX002 (ip), vehicle: gum acacia 97 % of control

O=Cc1cc2c(cc1[N+](=O)[O-])OCO2
inactive: [16] 94 % of control | [8] 101 % of control | [17] 96 % of control | [9] 97 % of control | dose: 400.0 mg/kg/injection, schedule: Q04DX003 (ip), vehicle: Klucel (hydroxypropylcellulose) (HPC) 92 % of control | [11] 95 % of control

COc1ccccc1OC(=O)Nc1ccc(C)c([N+](=O)[O-])c1
inactive: dose: 25.0 mg/kg/injection, schedule: Q01DX009 (ip), vehicle: saline with Tween-80 95 % of control | [12] 118 % of control | [7] 92 % of control

O=c1c2ccccc2n2nnc3cccc1c32
inactive: dose: 100.0 mg/kg/injection, schedule: Q01DX001 (ip), vehicle: Klucel (hydroxypropylcellulose) (HPC) 97 % of control and 88 % of control | [16] 91 % of control | dose: 200.0 mg/kg/injection, schedule: Q01DX001 (ip), vehicle: Klucel (hydroxypropylcellulose) (HPC) 87 % of control | [17] 95 % of control | dose: 400.0 mg/kg/injection, schedule: Q01DX001 (ip), vehicle: Klucel (hydroxypropylcellulose) (HPC) 92 % of control
